Assay results from US6737058B2, “Methods for inhibiting endothelial cell and fibrinogen mediated inflammation using fibrinogen specific antibodies” (The Scripps Research Institute, priority 1992, dated 2004).

Assays:
[1] = test system: TNF or LPS-stimulated HUVEC; experiment: 125I-labelled fibrinogen binding to TNF- or LPS-stimulated HUVEC; set-up: species or system human; conditions: TNF 5 ng/ml or LPS 1.0 μg/ml, 4 hours at 37° C.
Experimental: To determine the effect that known stimulators of HUVEC have on the binding characteristics of fibrinogen to HUVEC, dose-response experiments were performed as described in Example 3A2) on untreated HUVEC and TNF or lipopolysaccharide (LPS, Genzyme))-stimulated HUVEC. TNF and LPS were separately admixed at the respective concentrations of 5 nanograms (ng)/ml and 1.0 μg/ml to monolayers of HUVEC and maintained at 37° C. for 4 hours prior to the admixture of the labelled fibrinogen ranging in concentration from 0.01 μM up to 0.36 μM.

[2] = test system: bovine aortic endothelial cells (BAE); experiment: Fibrinogen-mediated adhesion of 51Cr-labelled THP-1 cells to bovine aortic endothelial cells; type: cell-based; conditions: 500 μg/ml fibrinogen
Experimental: Cell adhesion binding assays described above were performed on bovine aortic endothelial cells (BAE) to determine if fibrinogen could mediate the binding of ^51Cr-labelled THP-1 cells to endothelial cells from a different source. Cell cultures were prepared from bovine aorta following procedures known to one skilled in the art. THP-1 cells were either left untreated or treated with 500 μg/ml fibrinogen over a 60 minute time course. At selected time points, the cells were harvested as described in Example 3B1) and the number of attached THP-1 cells were determined as previously described. […] However, in the presence of fibrinogen, approximately 20,000 cells bound to BAE cells after a 40 minute maintenance period. This maximum binding dropped off at 60 minutes to approximately 15,000 attached cells. Binding of THP-1 cells to HUVEC was done in parallel as a control for the experiment; the non-saturable binding of THP-1 cells in the presence of fibrinogen was maximal at 60 minutes with approximately 25,000 cells attached. Thus, fibrinogen mediates the binding of THP-1 cells not only to human endothelial cells but also to bovine-derived endothelial cells.

HUVEC [3] = experiment: Inhibition of 125I-labelled fibrinogen binding to HUVEC by cold fibrinogen, anti-VNR antibodies and RGD/RGE peptides; set-up: species or system human
Experimental: Binding of ^125I-labelled fibrinogen binding to HUVEC assays were performed in the presence of 50 molar excess of unlabelled fibrinogen in order to confirm the specificity of binding as shown in Example 3A. The binding assay was performed as described in Example 3A with the exception that unlabelled fibrinogen was admixed to HUVEC at a 50 molar excess (approximately […] fibrinogen) concurrently with 50 μg/ml of ^125I-labelled fibrinogen. The protein-cell admixtures were maintained at 22° C. for 30 minutes to allow for binding of fibrinogen to HUVEC. In addition to cold fibrinogen, a 50 fold molar excess of BSA was separately admixed as a control. The amount of fibrinogen bound under the above conditions was quantitated as described in Example 3A. The uninhibited total binding of ^125I-labelled fibrinogen saturated after 30 minutes at approximately 4000 cpm per well. […] The binding of fibrinogen to the HUVEC surface fibrinogen receptor is therefore specific.
The specificity of binding to an RGD-independent fibrinogen receptor was confirmed in competition assays performed as described above in the presence of monoclonal antibodies against the beta subunit of the RGD-dependent VNR and in the presence of RGD-containing peptides. For the assays in which the ability of anti-VNR monoclonal antibodies, designated mAb 609 and mAb 7E3, to inhibit the binding of ^125I-labelled fibrinogen to HUVEC, the antibodies were separately maintained at a concentration of 25 μg/ml with HUVEC for 20 minutes at 37° C. After the maintenance period, the antibody-treated HUVEC were washed once with serum-free RPMI 1640 to remove any unbound antibody. Labelled fibrinogen was then admixed to the treated HUVEC at a concentration of 50 μg/ml in the presence of 2.5 mM CaCl2 and […] PPack. The resultant admixtures were maintained for 10-30 minutes at 22° C. The fibrinogen-treated HUVEC were then washed, solubilized and counted as described in Example 3A.
To confirm that the fibrinogen binding site on HUVEC was not RGD dependent, inhibition assays performed as described above for inhibiting with antibodies except that they were done in the presence of 1.0 mM of an RGD-containing peptide. A control RGE-containing peptide was also included in the assay. At selected time points over the time course of one hour, the HUVEC were harvested as described in Example 3A.

HUVEC [4] = experiment: Adhesion of terminally-differentiated 51Cr-labeled HL-60 cells to resting HUVEC with plasma adhesive proteins; type: cell-based, human; conditions: 150 μ/ml protein, fMLP 10 μM, 30 min at 22° C.
Experimental: The effect of fibrinogen, vitronectin, and fibronectin on the interaction of terminally-differentiated HL-60 and monocytic THP-1 cells with HUVEC was determined as described in Languino, supra. Briefly, serum-free suspensions of HL-60 or THP-1 cells were labeled with ^51Cr as described in Example 81A to a final incorporation of 0.2-4 cpm/cell. After washes in PBS, pH 7.2, aliquots of the HL-60 cells were resuspended in serum-free RPMI 1640 at 1.5×10^6/ml and stimulated with 10 μM of the chemoattractant formyl-methionyl-leucyl-phenylalanine (fMLP, Sigma, St. Louis, Mo.) and equilibrated with 150 μ/ml fibrinogen, vitronectin, or fibronectin in the presence of 1 mM CaCl2 for 20 min at 22° C. Equilibrated HL-60 were added to resting HUVEC monolayers that had been previously incubated with fresh complete culture medium 12 hours prior to the experiment and incubated for an additional 30 min at 22° C., washed,solubilized in 10-20% SDS, and associated radioactivity determined in a scintillation β-counter. The number of attached cells was quantitated by diving the cpm harvested by the cpm/cell. Under these experimental conditions, there was no aggregation of the various leukocyte subpopulations in the presence of the different plasma adhesive proteins, nor disruption of the HUVEC monolayers at any time interval tested, as judged by routine microscopic examination of the adhesion field. Data are the mean ± S.D. of triplicates from a representative experiment.
Experimental conditions were the same as described in Example 9C1 except that the ^51Cr-labeled HL-60 cells were equilibrated with 40 μg/ml vitronectin or control protein transferrin and added to resting HUVEC for increasing time intervals between 10 and 60 minutes at 22° C. before measurement of leukocyte adhesion.
Experimental conditions were the same as described in Example 9C1 except that the ^51Cr-labeled HL-60 cells were equilibrated with several concentrations of vitronectin ranging from 1.84 to 150 μg/ml and prior to incubation to resting HUVEC.

Substance: fibrinogen: fibrinogen isolated from fresh plasma by cold ethanol fractionation, fibronectin-free
- labelled fibrinogen molecules bound per cell in comparison to unstimulated cells [1]: doubled
- THP-1 cells bound to BAE cells ([2]; 40 minutes): approximately 20,000 cells
- THP-1 cells bound to BAE cells ([2]; 60 minutes): approximately 15,000 cells
- uninhibited total binding of 125I-labelled fibrinogen at saturation (HUVEC [3]; 50 μg/ml, after 30 minutes, 22° C.): approximately 4000 cpm per well
- inhibition of 125I-labelled fibrinogen binding to HUVEC (HUVEC [3]; 50 molar excess of unlabelled protein, 50 μg/ml labelled fibrinogen, 22° C., 30 minutes): half that of the total uninhibited binding
- inhibition of 125I-labelled fibrinogen binding to HUVEC (FIG. 7) (HUVEC [3]; cold fibrinogen in 50 molar excess, 10-30 minutes): almost completely inhibited
- inhibition of 125I-labelled fibrinogen binding to HUVEC (FIG. 8) (HUVEC [3]; cold fibrinogen, time course of one hour): completely inhibited
- adhesion of differentiated HL-60 cells to HUVEC relative to cells not equilibrated with an adhesive protein (HUVEC [4]): two to three-fold higher
